Read-outs that look alike come from different tables or passages of the source.
Experiments:
[1] = single ingredient, doses of 15-24 grams/day; cited from earlier work
[2] = Earlier antibiotic treatment of the Example 2 subjects; assay type: in vivo, human; settings: 500 mg twice daily
From the text: This can be compared to the subjects' situation before the study.

| SMILES | Side effects [1] | Side effects ([2]; 6-9 months) | Recurrence of UTI symptoms ([2]; after 6-9 months) |
| --- | --- | --- | --- |
| O=C[C@@H](O)[C@@H](O)[C@H](O)[C@H](O)CO [D-mannose] | bloating, gas and diarrhea | – | – |
| CC1=C(C(=O)O)N2C(=O)[C@@H](NC(=O)[C@H](N)c3ccccc3)[C@H]2SC1 [Cephalexin] | – | nausea, diarrhoea and yeast infections (oral and vaginal) | UTI symptoms had reoccurred after the course of antibiotics was completed |

From patent US11590188B2, “Composition for the treatment of urinary tract infections” (priority 2020, dated 2023)
